Data on 36 compounds can be found in patent US11208411B2, “Compositions and methods for treating parasitic diseases” (THE REGENTS OF THE UNIVERSITY OF CALIFORNIA, priority 2016, dated 2021).

Read-outs that look alike come from different tables or passages of the source.

Data set [1] addresses Src (Homo sapiens (Human), UniProt P12931). Kind of data set: Src kinase inhibition. The class given is biochemical. The arrangement: Src % Inhibition: concentration or dose not given beside the values.
In data set [2] the target is TgCDPK1 (Toxoplasma gondii, UniProt Q9BJF5). Kind of data set: TgCDPK1 kinase assay, syntide-2 peptide-based ELISA. Type of data set: biochemical. Background: ELISA stands for enzyme-linked immunosorbent assay.
The subject of data set [3] is T. gondii type I RH strain, 2F clone. Kind of data set: Inhibition of parasite growth in vitro in HFF monolayers (beta-Gal readout). The class given is cell-based.
Data set [4] is described as follows: Stability in rat liver microsomes. The class given is in vitro ADME. The settings on record: 1 mM NADPH, read-out: Microsome Half-Life.
A short description of data set [5]: In vivo pharmacokinetics. Conditions: iv, 3 mg/kg.
Setting [6] is: Toxoplasma gondii, 72 h; read-out: Parasite Growth EC50.

Sequence of TgCDPK1 (Q9BJF5 1-507): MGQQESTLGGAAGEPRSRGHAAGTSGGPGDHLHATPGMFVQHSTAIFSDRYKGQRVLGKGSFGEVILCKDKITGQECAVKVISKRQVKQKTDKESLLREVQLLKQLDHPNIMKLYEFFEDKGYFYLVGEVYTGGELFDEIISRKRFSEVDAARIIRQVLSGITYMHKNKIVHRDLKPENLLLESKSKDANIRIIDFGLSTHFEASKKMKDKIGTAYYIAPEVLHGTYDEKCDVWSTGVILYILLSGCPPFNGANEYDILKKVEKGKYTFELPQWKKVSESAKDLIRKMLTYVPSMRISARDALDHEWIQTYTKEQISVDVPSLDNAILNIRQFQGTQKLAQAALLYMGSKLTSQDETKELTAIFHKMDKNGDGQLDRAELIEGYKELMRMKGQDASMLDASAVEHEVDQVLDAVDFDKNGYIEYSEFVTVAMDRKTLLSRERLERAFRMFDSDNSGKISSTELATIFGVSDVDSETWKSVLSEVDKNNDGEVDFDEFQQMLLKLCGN
Sequence of Src (P12931 whole entry, looked up): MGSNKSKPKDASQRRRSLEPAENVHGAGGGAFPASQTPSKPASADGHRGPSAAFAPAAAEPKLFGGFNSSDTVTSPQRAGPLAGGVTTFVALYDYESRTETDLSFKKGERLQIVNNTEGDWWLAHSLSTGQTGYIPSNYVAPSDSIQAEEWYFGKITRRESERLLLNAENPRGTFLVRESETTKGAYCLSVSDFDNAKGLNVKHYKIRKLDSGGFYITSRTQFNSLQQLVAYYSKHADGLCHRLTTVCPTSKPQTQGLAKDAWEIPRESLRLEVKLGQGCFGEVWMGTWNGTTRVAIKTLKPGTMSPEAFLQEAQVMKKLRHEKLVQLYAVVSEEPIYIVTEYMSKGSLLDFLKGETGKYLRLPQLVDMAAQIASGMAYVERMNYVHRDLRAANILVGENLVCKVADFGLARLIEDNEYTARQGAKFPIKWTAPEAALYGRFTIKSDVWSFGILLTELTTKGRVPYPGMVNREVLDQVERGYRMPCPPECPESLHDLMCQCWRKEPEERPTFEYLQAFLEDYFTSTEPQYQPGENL

As to `Nc1ncnc2c1c(Oc1ccc(F)c(Cl)c1)nn2CC1CCNCC1` [GXJ261, 3-(3-chloro-4-fluorophenoxy)-1-(piperidin-4-ylmethyl)-1H-pyrazolo[3,4-d]pyrimidin-4-amine], the “Src % Inhibition” value in data set [1] was found to be 78.16%.

On to `Nc1ncnc2c1c(Cc1cc(F)cc(F)c1)nn2CC1CCNCC1` [MLC468, 3-(3,5-difluorobenzyl)-1-(piperidin-4-ylmethyl)-1H-pyrazolo[3,4-d]pyrimidin-4-amine], for which the “Src % Inhibition” value in data set [1] turned out to be 94.97%.

With `Cc1cccc(Sc2nn(CC3CCNCC3)c3ncnc(N)c23)c1` [FUR7-77, 1-(piperidin-4-ylmethyl)-3-(m-tolylthio)-1H-pyrazolo[3,4-d]pyrimidin-4-amine], the “Src % Inhibition” value in data set [1] is on record as 80.21%.

As to `Nc1ncnc2c1c(Cc1c[nH]c3ccccc13)nn2CC1(C(F)(F)F)CC1` [WXT-2, 3-((1H-indol-3-yl)methyl)-1-((1-(trifluoromethyl)cyclopropyl)methyl)-1H-pyrazolo[3,4-d]pyrimidin-4-amine], the concentration for half-maximal inhibition (IC50) was 38.1 nM in data set [2] and > 10000 nM in data set [1]. The EC50 in data set [3] (Toxoplasma gondii, 72 h, read-out: Parasite Growth EC50) amounted to 206 nM. For the same compound, the “Src % Inhibition” value in data set [1] was 96.00%. Also, the half-life in data set [4] came to 4.7 min.

On to `CN1CCC(Cn2nc(Oc3cccc(Cl)c3)c3c(N)ncnc32)CC1` [FUR7-30, 3-(3-chlorophenoxy)-1-((1-methylpiperidin-4-yl)methyl)-1H-pyrazolo[3,4-d]pyrimidin-4-amine], for which the “Src % Inhibition” value in data set [1] turned out to be 96.94%.

Take `Nc1ncnc2c1c(Oc1cccc(Cl)c1)nn2CC1CCCNC1` (stereo not shown) [FUR6-11, 3-(3-chlorophenoxy)-1-(piperidin-3-ylmethyl)-1H-pyrazolo[3,4-d]pyrimidin-4-amine]: the “Src % Inhibition” value in data set [1] was found to be 90.05%.

Take `Nc1ncnc2c1c(Oc1cccc(Cl)c1)nn2CC1(C(F)(F)F)CC1` [FUR7-2, 3-(3-chlorophenoxy)-1-((1-(trifluoromethyl)cyclopropyl)methyl)-1H-pyrazolo[3,4-d]pyrimidin-4-amine]: in data set [1], the “Src % Inhibition” value is 91.63%.

`CC(C)(C)n1nc(Cc2csc3ccccc23)c2c(N)ncnc21` [CZ43, 3-(benzo[b]thiophen-3-ylmethyl)-1-(tert-butyl)-1H-pyrazolo[3,4-d]pyrimidin-4-amine]: the 50% inhibitory concentration (IC50) in data set [2] is 7.45 nM; in data set [1], 14 nM. For the same compound, the half-maximal effective concentration (EC50) in data set [3] (setting [6]) amounted to 135 nM. Further, the “Src % Inhibition” value in data set [1] is on record as 28.21%. Moreover, in data set [4], the half-life was 2.5 min.

In the case of `CC(C)(C)n1nc(Cc2cc(F)cc(F)c2)c2c(N)ncnc21` [CZ75, 1-(tert-butyl)-3-(3,5-difluorobenzyl)-1H-pyrazolo[3,4-d]pyrimidin-4-amine], the “Src % Inhibition” value in data set [1] is given as 91.31%.

Take `COc1cccc(Oc2nn(C(C)(C)C)c3ncnc(N)c23)c1` [GXJ230, 1-(tert-butyl)-3-(3-methoxyphenoxy)-1H-pyrazolo[3,4-d]pyrimidin-4-amine]: the “Src % Inhibition” value in data set [1] worked out at 77.53%.

Turning to `Nc1ncnc2c1c(Nc1cccc(Cl)c1)nn2CC1CCNCC1` [GXJ276, N^3-(3-chlorophenyl)-1-(piperidin-4-ylmethyl)-1H-pyrazolo[3,4-d]pyrimidine-3,4-diamine], the “Src % Inhibition” value in data set [1] is 24.50%.

In the case of `Nc1ncnc2c1c(Oc1cccc(Cl)c1)nn2Cc1ccncc1` [FUR6-6, 3-(3-chlorophenoxy)-1-(pyridin-4-ylmethyl)-1H-pyrazolo[3,4-d]pyrimidin-4-amine], in data set [1], the “Src % Inhibition” value amounted to 93.91%.

As to `CC(C)(C)n1nc(Nc2cccc(Cl)c2)c2c(N)ncnc21` [LZH118, 1-(tert-butyl)-N^3-(3-chlorophenyl)-1H-pyrazolo[3,4-d]pyrimidine-3,4-diamine], the “Src % Inhibition” value in data set [1] is on record as 21.86%.

Regarding `Nc1ncnc2c1c(Sc1cccc(Cl)c1)cn2CC1CCNCC1` [FUR 6-139, 5-((3-chlorophenyl)thio)-7-(piperidin-4-ylmethyl)-7H-pyrrolo[2,3-d]pyrimidin-4-amine], the “Src % Inhibition” value in data set [1] was 97.49%.

On to `Nc1ncnc2c1c(Oc1cccc(Cl)c1)nn2CC1CCNC1` (stereo not shown) [FUR6-13, 3-(3-chlorophenoxy)-1-(pyrrolidin-3-ylmethyl)-H-pyrazolo[3,4-d]pyrimidin-4-amine], for which the “Src % Inhibition” value in data set [1] is on record as 99.50%.

With `Nc1ncnc2c1c(Oc1cccc(Cl)c1)nn2CC1CNC1` [FUR6-12, 1-(azetidin-3-ylmethyl)-3-(3-chlorophenoxy)-1H-pyrazolo[3,4-d]pyrimidin-4-amine], in data set [1], the “Src % Inhibition” value was determined as 91.81%.

With `CC(C)(C)n1nc(Cc2cccc(Cl)c2)c2c(N)ncnc21` [Compound 3CIB-PP1, 1-(tert-butyl)-3-(3-chlorobenzyl)-1H-pyrazolo[3,4-d]pyrimidin-4-amine, reference compound], in data set [1], the “Src % Inhibition” value is recorded as 18.48%.

For `CC(C)(C)n1nc(Oc2cccc(Cl)c2)c2c(N)ncnc21` [GXJ184, 1-(tert-butyl)-3-(3-chlorophenoxy)-1H-pyrazolo[3,4-d]pyrimidin-4-amine], in data set [5], the “Co (initial conc.)” value turned out to be 5471.09 ng/mL. In data set [1], the “Src % Inhibition” value is 79.94%.

Regarding `Nc1ncnc2c1c(Sc1c[nH]c3ccccc13)nn2CC1CCNCC1` [FUR 5-57, 3-((1H-indol-3-yl)thio)-1-(piperidin-4-ylmethyl)-1H-pyrazolo[3,4-d]pyrimidin-4-amine], the half-life in data set [4] is 12 min.

As to `Nc1ncnc2c1c(Oc1cccc(Cl)c1)nn2CC1CCOCC1` [FUR7-89, 3-(3-chlorophenoxy)-1-((tetrahydro-2H-pyran-4-yl)methyl)-1H-pyrazolo[3,4-d]pyrimidin-4-amine], the “Src % Inhibition” value in data set [1] is reported as 77.33%.

With `Nc1ncnc2c1c(Cc1cccc(Cl)c1)nn2CC1CCNCC1` [FUR6-157, 3-(3-chlorobenzyl)-1-(piperidin-4-ylmethyl)-1H-pyrazolo[3,4-d]pyrimidin-4-amine], the “Src % Inhibition” value in data set [1] came out at 87.11%.

`CC(C)(C)n1nc(Cc2coc3ccccc23)c2c(N)ncnc21` [LJQ-145, 3-(benzofuran-3-ylmethyl)-1-(tert-butyl)-1H-pyrazolo[3,4-d]pyrimidin-4-amine] registered an IC50 in data set [2] of 23.7 nM. Further, in data set [3] (setting [6]), the EC50 was 2030 nM. For the same compound, the “Src % Inhibition” value in data set [1] came out at 36.04%. Further, the half-life in data set [4] stood at 1.7 min.

As to `Nc1ncnc2c1c(Cc1c[nH]c3ccccc13)nn2CC1CCNCC1` [FUR6-95, 3-((1H-indol-3-yl)methyl)-1-(piperidin-4-ylmethyl)-1H-pyrazolo[3,4-d]pyrimidin-4-amine], the 50% inhibitory concentration (IC50) in data set [2] was 23.9 nM; in data set [1], > 10000 nM. Besides, in data set [3] (setting [6]), the 50% effective concentration (EC50) was > 10000 nM. Also, the “Src % Inhibition” value in data set [1] stood at 92.70%. The half-life in data set [4] is > 60 min.

On to `Nc1ncnc2c1c(Oc1cccc(Cl)c1)nn2CC1CCNC(=O)C1` (stereo not shown) [FUR7-36, 4-((4-amino-3-(3-chlorophenoxy)-1H-pyrazolo[3,4-d]pyrimidin-1-yl)methyl)piperidin-2-one], for which the “Src % Inhibition” value in data set [1] came out at 96.13%.

For `CC(C)(C)n1nc(Oc2cc(F)cc(F)c2)c2c(N)ncnc21` [GXJ229, 1-(tert-butyl)-3-(3,5-difluorophenoxy)-1H-pyrazolo[3,4-d]pyrimidin-4-amine], the “Src % Inhibition” value in data set [1] came to 87.48%.

Consider `CC(C)(C)n1nc(Oc2cccc(C(F)(F)F)c2)c2c(N)ncnc21` [GXJ178, 1-(tert-butyl)-3-(3-(trifluoromethyl)phenoxy)-1H-pyrazolo[3,4-d]pyrimidin-4-amine], for which the “Src % Inhibition” value in data set [1] is 79.53%.

In data set [2], `CC(C)(C)n1nc(Sc2c[nH]c3ccccc23)c2c(N)ncnc21` [FUR6-159, 3-((1H-indol-3-yl)thio)-1-(tert-butyl)-1H-pyrazolo[3,4-d]pyrimidin-4-amine] registered an IC50 of 202 nM. Also, the EC50 in data set [3] (setting [6]) is > 10000 nM. In data set [1], the IC50 was > 10000 nM and the “Src % Inhibition” value was found to be 97.66%. Also, the half-life in data set [4] was 2.6 min.

For `CC(C)(C)n1nc(Oc2cccc(Br)c2)c2c(N)ncnc21` [GXJ177, 3-(3-bromophenoxy)-1-(tert-butyl)-1H-pyrazolo[3,4-d]pyrimidin-4-amine], in data set [1], the “Src % Inhibition” value came to 73.35%.

Turning to `CC(C)(C)n1nc(Sc2cccc(Cl)c2)c2c(N)ncnc21` [GXJ186, 1-(tert-butyl)-3-((3-chlorophenyl)thio)-1H-pyrazolo[3,4-d]pyrimidin-4-amine], in data set [1], the “Src % Inhibition” value is listed as 72.84%.

Consider `Cc1cccc(Oc2nn(C(C)(C)C)c3ncnc(N)c23)c1` [GXJ176, 1-(tert-butyl)-3-(m-tolyloxy)-1H-pyrazolo[3,4-d]pyrimidin-4-amine], for which the “Src % Inhibition” value in data set [1] is 84.24%.

In data set [2], `CC(C)(C)n1nc(Cc2c[nH]c3ccccc23)c2c(N)ncnc21` [LJQ-138, 3-((1H-indol-3-yl)methyl)-1-(tert-butyl)-1H-pyrazolo[3,4-d]pyrimidin-4-amine] registered a 50% inhibitory concentration (IC50) of 12.3 nM. Also, the EC50 in data set [3] (setting [6]) came to 177 nM. In addition, in data set [1], the IC50 was > 10000 nM and the “Src % Inhibition” value worked out at 74.94%. Also, in data set [4], the half-life was 2 min.

As to `Nc1ncnc2c1c(Oc1cccc(Cl)c1)nn2CC1CCNCC1` [GXJ237, 3-(3-chlorophenoxy)-1-(piperidin-4-ylmethyl)-1H-pyrazolo[3,4-d]pyrimidin-4-amine], in data set [1], the “Src % Inhibition” value amounted to 87.87%.

Regarding `Cc1cccc(Sc2nn(C(C)(C)C)c3ncnc(N)c23)c1` [FUR7-68, 1-(tert-butyl)-3-(m-tolylthio)-1H-pyrazolo[3,4-d]pyrimidin-4-amine], the IC50 in data set [2] was 22.9 nM; in data set [1], > 10000 nM. Moreover, in data set [3] (setting [6]), the EC50 turned out to be 376 nM. In addition, the “Src % Inhibition” value in data set [1] turned out to be 64.39%. Besides, in data set [4], the half-life is 1 min.

As for `Nc1ncnc2c1c(Oc1cccc(Cl)c1)nn2CC1CCNCC1(F)F` (stereo not shown) [FUR7-27, 3-(3-chlorophenoxy)-1-((3,3-difluoropiperidin-4-yl)methyl)-1H-pyrazolo[3,4-d]pyrimidin-4-amine], the “Src % Inhibition” value in data set [1] was determined as 87.87%.

For the compound `Nc1ncnc2c1c(Sc1cccc(Cl)c1)nn2CC1CCNCC1` [FUR 5-56], the “Src % Inhibition” value in data set [1] stood at 102.82%.

For `Nc1ncnc2c1c(Sc1cccc(Cl)c1)nn2CC1CCNCC1(F)F` (stereo not shown) [FUR 7-76], the “Src % Inhibition” value in data set [1] is recorded as 76.47%.

By IC50 is commonly meant the midpoint of a concentration-inhibition curve. What is called EC50 is the concentration at which the effect is half-maximal. In general, half-life refers to the time in which the quantity being followed falls by half.
